Legend:
[1] = system: NKG2A−/NKG2C− NK cells; assay: NK cell activation markers in control NKG2A-/NKG2C- NK cells incubated with peptide and K562 expressing HLA-E; format: cell-based, human
Description: (§1) A human immortalized myelogenous leukemia cell line (K562), which expresses HLA-E was incubated with novel peptides (Table 1) derived from the human proteome or human cytomegalovirus proteome. […] Controls assessments were also performed using NKG2A−/NKG2C− cells (Tables 10-13). Inhibition was indicated by a decrease in percent cells positive for cell surface markers, while activation was indicated by an increase in percent cells positive for cell surface markers.

[2] = biological target: T1, HLA-E (Homo sapiens, UniProt P13747); assay: HLA-E surface stabilization assay with RMA-S/HLA-E cells; format: cell-based; settings: 30 μM peptide, 16 hours; for HLA-E surface expression stability (GeoMFI): anti-HLA-E antibody; for HLA-E surface expression stabilization strength, approximate GeoMFI: approximate value
T1 construct: expressed in transfected cells; host or cells: RMA-S/HLA-E cells (antigen processing-defective lymphoma cell line)
T1 sequence (P13747 22-358): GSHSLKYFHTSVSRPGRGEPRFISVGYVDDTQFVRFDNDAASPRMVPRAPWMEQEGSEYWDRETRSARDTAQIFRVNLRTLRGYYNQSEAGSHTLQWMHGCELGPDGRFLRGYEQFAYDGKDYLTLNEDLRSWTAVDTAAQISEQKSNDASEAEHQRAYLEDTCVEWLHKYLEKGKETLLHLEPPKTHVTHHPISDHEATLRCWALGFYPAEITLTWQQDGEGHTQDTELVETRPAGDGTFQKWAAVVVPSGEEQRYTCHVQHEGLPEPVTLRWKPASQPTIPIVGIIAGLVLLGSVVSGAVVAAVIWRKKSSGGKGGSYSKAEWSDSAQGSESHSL
T1 sequence (P61769 21-119 partner): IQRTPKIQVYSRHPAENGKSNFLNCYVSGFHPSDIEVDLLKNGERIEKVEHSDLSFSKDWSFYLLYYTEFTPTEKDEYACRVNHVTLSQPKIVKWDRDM
Description: HLA-E surface expression was assessed by measuring geometric mean fluorescence intensity (GeoMFI) in RMA-S cells following immunofluorescence staining with an anti-HLA-E antibody (Table 14). Increased GeoMFI was indicative of increased HLA-E surface expression stability following novel peptide exposures (FIG. 3).

[3] = system: NKG2A+/NKG2C− NK cells; assay: NK cell activation markers in NKG2A+/NKG2C- NK cells incubated with peptide and K562 expressing HLA-E (inhibition); format: cell-based, human; settings: for effect on NKG2A+/NKG2C− NK cell inhibition (in words): K562 expressing HLA-E, CD107a, IFNG, TNF, CCL3; for percentage of CCL3+ NK cells / percentage of CD107a+ NK cells / percentage of IFNG+ NK cells / percentage of TNF+ NK cells: NKG2A+/NKG2C- NK cells, K562/HLA-E
Description: as §1

[4] = system: NKG2A−/NKG2C+ NK cells; assay: NK cell activation markers in NKG2A-/NKG2C+ NK cells incubated with peptide and K562 expressing HLA-E (activation); format: cell-based, human; settings: for effect on NKG2A−/NKG2C+ NK cell activation (in words): K562 expressing HLA-E, CD107a, IFNG, TNF, CCL3; for percentage of CCL3+ NK cells / percentage of CD107+ NK cells / percentage of IFNG+ NK cells / percentage of TNF+ NK cells: NKG2A-/NKG2C+ NK cells, K562/HLA-E
Description: as §1

VLPHRTQFL [CMV1, novel CMV-derived peptide UL120 72-80, Merlin]
percentage CCL3+ NK cells ([1]; Trial 1): 29.9%
percentage CD107+ NK cells ([1]; Trial 1): 21.4%
percentage TNF+ NK cells ([1]; Trial 1): 2.62%
percentage of IFNG+ NK cells ([1]; Trial 1): 13.5%
percentage CCL3+ NK cells ([1]; Trial 2): 52.4%
percentage CD107+ NK cells ([1]; Trial 2): 32.5%
percentage TNF+ NK cells ([1]; Trial 2): 9.43%
percentage of IFNG+ NK cells ([1]; Trial 2): 27.7%
percentage CCL3+ NK cells ([1]; Trial 3): 47.3%
percentage CD107+ NK cells ([1]; Trial 3): 41.9%
percentage TNF+ NK cells ([1]; Trial 3): 13.6%
percentage of IFNG+ NK cells ([1]; Trial 3): 36.7%
percentage CCL3+ NK cells ([1]; Trial 4): 27.2%
percentage CD107+ NK cells ([1]; Trial 4): 25.7%
percentage TNF+ NK cells ([1]; Trial 4): 8.63%
percentage of IFNG+ NK cells ([1]; Trial 4): 17.4%
percentage CCL3+ NK cells ([1]; Trial 5): 26.6%
percentage CD107+ NK cells ([1]; Trial 5): 18.6%
percentage TNF+ NK cells ([1]; Trial 5): 6.68%
percentage of IFNG+ NK cells ([1]; Trial 5): 14.6%
percentage CCL3+ NK cells ([1]; Trial 6): 19.1%
percentage CD107+ NK cells ([1]; Trial 6): 14.5%
percentage TNF+ NK cells ([1]; Trial 6): 2.86%
percentage of IFNG+ NK cells ([1]; Trial 6): 8.57%
HLA-E surface expression stability (GeoMFI) ([2]; Trial 1): 2140 GeoMFI
HLA-E surface expression stability (GeoMFI) ([2]; Trial 2): 1714 GeoMFI
HLA-E surface expression stability (GeoMFI) ([2]; Trial 3): 2014 GeoMFI
HLA-E surface expression stability (GeoMFI) ([2]; Trial 4): 2421 GeoMFI
HLA-E surface expression stabilization strength, approximate GeoMFI [2]: approximately 2×10^3 GeoMFI
effect on NKG2A+/NKG2C− NK cell inhibition (in words) [3]: strong inhibitory
percentage of CCL3+ NK cells ([3]; Trial 1): 3.55%
percentage of CD107a+ NK cells ([3]; Trial 1): 2.12%
percentage of IFNG+ NK cells ([3]; Trial 1): 0.46%
percentage of TNF+ NK cells ([3]; Trial 1): 0.27%
percentage of CCL3+ NK cells ([3]; Trial 2): 7.82%
percentage of CD107a+ NK cells ([3]; Trial 2): 3.42%
percentage of IFNG+ NK cells ([3]; Trial 2): 1.08%
percentage of TNF+ NK cells ([3]; Trial 2): 0.39%
percentage of CCL3+ NK cells ([3]; Trial 3): 7.91%
percentage of CD107a+ NK cells ([3]; Trial 3): 4.2%
percentage of IFNG+ NK cells ([3]; Trial 3): 2.52%
percentage of TNF+ NK cells ([3]; Trial 3): 1.09%
percentage of CCL3+ NK cells ([3]; Trial 4): 3.5%
percentage of CD107a+ NK cells ([3]; Trial 4): 3.15%
percentage of IFNG+ NK cells ([3]; Trial 4): 0.93%
percentage of TNF+ NK cells ([3]; Trial 4): 0.7%
percentage of CCL3+ NK cells ([3]; Trial 5): 14.5%
percentage of CD107a+ NK cells ([3]; Trial 5): 3.92%
percentage of IFNG+ NK cells ([3]; Trial 5): 1.35%
percentage of TNF+ NK cells ([3]; Trial 5): 0.82%
percentage of CCL3+ NK cells ([3]; Trial 6): 3.86%
percentage of CD107a+ NK cells ([3]; Trial 6): 2.27%
percentage of IFNG+ NK cells ([3]; Trial 6): 0.82%
percentage of TNF+ NK cells ([3]; Trial 6): 0.34%
effect on NKG2A−/NKG2C+ NK cell activation (in words) [4]: strong inhibitory and activating effects
effect on NKG2A−/NKG2C+ NK cell activation (in words) ([4]; listed as SEQ ID NO. 15): strong activating effects
percentage of CCL3+ NK cells ([4]; Trial 1): 80.1%
percentage of CD107+ NK cells ([4]; Trial 1): 77.3%
percentage of IFNG+ NK cells ([4]; Trial 1): 66.3%
percentage of TNF+ NK cells ([4]; Trial 1): 53.3%
percentage of CCL3+ NK cells ([4]; Trial 2): 90.4%
percentage of CD107+ NK cells ([4]; Trial 2): 87.2%
percentage of IFNG+ NK cells ([4]; Trial 2): 82.8%
percentage of TNF+ NK cells ([4]; Trial 2): 76.1%
percentage of CCL3+ NK cells ([4]; Trial 3): 86.5%
percentage of CD107+ NK cells ([4]; Trial 3): 86.2%
percentage of IFNG+ NK cells ([4]; Trial 3): 78.5%
percentage of TNF+ NK cells ([4]; Trial 3): 68.8%
percentage of CCL3+ NK cells ([4]; Trial 4): 67.5%
percentage of CD107+ NK cells ([4]; Trial 4): 67.3%
percentage of IFNG+ NK cells ([4]; Trial 4): 58.2%
percentage of TNF+ NK cells ([4]; Trial 4): 51%
percentage of CCL3+ NK cells ([4]; Trial 5): 78.1%
percentage of CD107+ NK cells ([4]; Trial 5): 76.9%
percentage of IFNG+ NK cells ([4]; Trial 5): 69.5%
percentage of TNF+ NK cells ([4]; Trial 5): 66%
percentage of CCL3+ NK cells ([4]; Trial 6): 58.3%
percentage of CD107+ NK cells ([4]; Trial 6): 53.4%
percentage of IFNG+ NK cells ([4]; Trial 6): 42.5%
percentage of TNF+ NK cells ([4]; Trial 6): 33.3%

ILTDRSLWL [human4, peptide FBXO41 670-678 derived from the human proteome]
percentage CCL3+ NK cells ([1]; Trial 1): 37.2%
percentage CD107+ NK cells ([1]; Trial 1): 27.2%
percentage TNF+ NK cells ([1]; Trial 1): 3.99%
percentage of IFNG+ NK cells ([1]; Trial 1): 15.4%
percentage CCL3+ NK cells ([1]; Trial 2): 56.3%
percentage CD107+ NK cells ([1]; Trial 2): 33.5%
percentage TNF+ NK cells ([1]; Trial 2): 7.5%
percentage of IFNG+ NK cells ([1]; Trial 2): 20.8%
percentage CCL3+ NK cells ([1]; Trial 3): 48.3%
percentage CD107+ NK cells ([1]; Trial 3): 44%
percentage TNF+ NK cells ([1]; Trial 3): 13.8%
percentage of IFNG+ NK cells ([1]; Trial 3): 33.7%
percentage CCL3+ NK cells ([1]; Trial 4): 35.9%
percentage CD107+ NK cells ([1]; Trial 4): 32.1%
percentage TNF+ NK cells ([1]; Trial 4): 10.2%
percentage of IFNG+ NK cells ([1]; Trial 4): 19.3%
percentage CCL3+ NK cells ([1]; Trial 5): 25%
percentage CD107+ NK cells ([1]; Trial 5): 19.2%
percentage TNF+ NK cells ([1]; Trial 5): 5.02%
percentage of IFNG+ NK cells ([1]; Trial 5): 13.7%
percentage CCL3+ NK cells ([1]; Trial 6): 25.1%
percentage CD107+ NK cells ([1]; Trial 6): 22.6%
percentage TNF+ NK cells ([1]; Trial 6): 5.37%
percentage of IFNG+ NK cells ([1]; Trial 6): 12.1%
HLA-E surface expression stability (GeoMFI) ([2]; Trial 1): 1174 GeoMFI
HLA-E surface expression stability (GeoMFI) ([2]; Trial 2): 921 GeoMFI
HLA-E surface expression stability (GeoMFI) ([2]; Trial 3): 887 GeoMFI
HLA-E surface expression stability (GeoMFI) ([2]; Trial 4): 1378 GeoMFI
HLA-E surface expression stabilization strength, approximate GeoMFI [2]: approximately 1×10^3 GeoMFI
effect on NKG2A+/NKG2C− NK cell inhibition (in words) [3]: mild inhibitory effects
percentage of CCL3+ NK cells ([3]; Trial 1): 35.5%
percentage of CD107a+ NK cells ([3]; Trial 1): 16.9%
percentage of IFNG+ NK cells ([3]; Trial 1): 5.47%
percentage of TNF+ NK cells ([3]; Trial 1): 1.97%
percentage of CCL3+ NK cells ([3]; Trial 2): 56.4%
percentage of CD107a+ NK cells ([3]; Trial 2): 23.7%
percentage of IFNG+ NK cells ([3]; Trial 2): 8.81%
percentage of TNF+ NK cells ([3]; Trial 2): 4.06%
percentage of CCL3+ NK cells ([3]; Trial 3): 34.7%
percentage of CD107a+ NK cells ([3]; Trial 3): 22%
percentage of IFNG+ NK cells ([3]; Trial 3): 13.3%
percentage of TNF+ NK cells ([3]; Trial 3): 7.29%
percentage of CCL3+ NK cells ([3]; Trial 4): 16.1%
percentage of CD107a+ NK cells ([3]; Trial 4): 15%
percentage of IFNG+ NK cells ([3]; Trial 4): 3.31%
percentage of TNF+ NK cells ([3]; Trial 4): 2.82%
percentage of CCL3+ NK cells ([3]; Trial 5): 32.7%
percentage of CD107a+ NK cells ([3]; Trial 5): 14.8%
percentage of IFNG+ NK cells ([3]; Trial 5): 6.82%
percentage of TNF+ NK cells ([3]; Trial 5): 3.39%
percentage of CCL3+ NK cells ([3]; Trial 6): 13.4%
percentage of CD107a+ NK cells ([3]; Trial 6): 12.8%
percentage of IFNG+ NK cells ([3]; Trial 6): 3.02%
percentage of TNF+ NK cells ([3]; Trial 6): 2.79%
effect on NKG2A−/NKG2C+ NK cell activation (in words) [4]: strong activating effects
percentage of CCL3+ NK cells ([4]; Trial 1): 77.9%
percentage of CD107+ NK cells ([4]; Trial 1): 76.7%
percentage of IFNG+ NK cells ([4]; Trial 1): 62.2%
percentage of TNF+ NK cells ([4]; Trial 1): 49.6%
percentage of CCL3+ NK cells ([4]; Trial 2): 87.9%
percentage of CD107+ NK cells ([4]; Trial 2): 79.5%
percentage of IFNG+ NK cells ([4]; Trial 2): 70.5%
percentage of TNF+ NK cells ([4]; Trial 2): 57.3%
percentage of CCL3+ NK cells ([4]; Trial 3): 84.4%
percentage of CD107+ NK cells ([4]; Trial 3): 84.8%
percentage of IFNG+ NK cells ([4]; Trial 3): 75.9%
percentage of TNF+ NK cells ([4]; Trial 3): 65.5%
percentage of CCL3+ NK cells ([4]; Trial 4): 74%
percentage of CD107+ NK cells ([4]; Trial 4): 73.4%
percentage of IFNG+ NK cells ([4]; Trial 4): 66.6%
percentage of TNF+ NK cells ([4]; Trial 4): 57.4%
percentage of CCL3+ NK cells ([4]; Trial 5): 81.2%
percentage of CD107+ NK cells ([4]; Trial 5): 77.9%
percentage of IFNG+ NK cells ([4]; Trial 5): 70.4%
percentage of TNF+ NK cells ([4]; Trial 5): 64.7%
percentage of CCL3+ NK cells ([4]; Trial 6): 64.6%
percentage of CD107+ NK cells ([4]; Trial 6): 64.2%
percentage of IFNG+ NK cells ([4]; Trial 6): 54%
percentage of TNF+ NK cells ([4]; Trial 6): 43%

From patent US20240092835A1, “NOVEL PEPTIDES CAPABLE OF ALTERING NK CELL ACTIVITY” (Massachusetts Institute of Technology, priority 2022, published 2024)
